Article PMC12320299 (Chemical Science, 2025)

Legend:
SW480 = test system: SW480; set-up: method as in earlier work; details: 96 h incubation; ref 48 (ESI Ref. 1); cited from earlier work
CH1/PA-1 = test system: CH1/PA-1; set-up: method as in Ref. 1 (ESI); details: 96 h incubation; ref Ref. 1 (ESI); cited from earlier work
TP53 = test: Immunofluorescence staining of TP53; format: cell-based, human; details: SW480, 24 h; 1a 1 μM; etoposide 100 nM
Protocol: Cell Signaling Technology (Danvers, MA, USA), respectively. Horseradish-peroxidase-linked secondary antibodies, anti-mouse IgG (Fc specific) antibody (#7076S) and anti-rabbit IgG antibody (#7074S) were purchased from Cell Signaling Technology (Danvers, MA, USA). Anti-ß-actin (AC-15) (A5441, 1:2000) was obtained from Sigma-Aldrich (St. Louis, MO, USA).
SW480 and CT26 cells were grown at a density of 6.7x10^4 cells/mL on 8-well glass coverslips (80841, ibidi GmbH, Gräfelfing, Germany) in 300 µL complete media. The next day, cells were treated with respective compounds for 24 h. Cells were fixed with 4%(v/v) paraformaldehyde for 15 min at RT, followed by washing, blocking and permeabilization with 5%(w/v) BSA and […]
(1 : 500) were diluted in 1% BSA-0.3% Triton-X-100 in PBS and incubated overnight at 4 °C.
One well was incubated without primary antibody as background control. Cells were washed and stained with secondary goat anti-mouse AlexaFlour-488 (1 : 500 dilution, A-11029, Thermo Fisher Scientific) or goat anti-rabbit AlexaFlour-488 (1 : 500 dilution, A-11034, Thermo Fisher Scientific) antibodies for 1 h at RT. Following, cells were stained with 0.2% Wheat Germ Agglutinin (WGA)-Rhodamine (RL-1022, Vector Laboratories, Inc.) and 0.1% DAPI (62248, Thermo Fisher Scientific) for staining of plasma membrane and nuclei, respectively, according to manufacturer’s recommendations. […]

SW480 cancer cells = test: Cell cycle analysis by flow cytometry (propidium iodide); format: cell-based, human; details: 24 h; 1a 12.5 to 50 nM; gemcitabine 10 nM

For `CCC1=C(O)C(=O)c2ccccc2C1=O` [a], the IC50 (SW480) is listed as 100 ± 10 µM and the IC50 (CH1/PA-1) is listed as 173 ± 10 µM.

For `O=C1C(O)=C(CN2CCOCC2)C(=O)c2ccccc21` [b, 3-morpholine naphthoquinone], the IC50 (SW480) is given as 160 ± 30 µM and the IC50 (CH1/PA-1) is given as greater than 200 µM.

In the case of `N.N.[Cl][Pt][Cl]` [cisplatin, reference compound], the IC50 (SW480) is given as 2.3 ± 0.2 µM and the IC50 (CH1/PA-1) is given as 0.073 ± 0.001 µM.

In the case of `COc1cc([C@@H]2c3cc4c(cc3[C@@H](O[C@@H]3O[C@@H]5CO[C@@H](C)O[C@H]5[C@H](O)[C@H]3O)[C@H]3COC(=O)[C@H]23)OCO4)cc(OC)c1O` [etoposide, reference compound], the TP53 immunofluorescence signal (TP53) is reported as “enhanced nuclear accumulation of TP53”.

For `Nc1ccn([C@@H]2O[C@H](CO)[C@@H](O)C2(F)F)c(=O)n1` [gemcitabine, reference compound], the cell cycle distribution (SW480 cancer cells) was “G0/G1 arrest”.
